“Also recorded” adds a separate entry of the source.
Columns and labels:
hsp25, hsp72 = test: Expression of heat shock proteins by IEC-18 cells after thermal injury (immunoblot); assay type: cell-based, rat; settings: 42° C. 23 min, peptide 8 μg/ml; 12 and 24 hr; listed as AMP peptide
Protocol: FIG. 42. Effect of AMP peptide on expression of heat shock proteins by intestinal epithelial cells after thermal injury. IEC-18 cell monolayers were subjected to non-lethal heat shock injury by exposure to 42° C. for 23 min. Immediately thereafter some cultures received AMP peptide (8 μg/ml) (P on figure); control cultures (C) received vehicle. Whole cell protein was analyzed by immunoblotting. Increased expression of hsp25 and induced hsp72 is seen 12 hr after heat shock in control cultures, but constitutive expression of hsc73 is not altered. Expression of hsp25 and 72 was increased after treatment with AMP peptide compared to vehicle at 12 and 24 hr.
In an effort to identify molecules that could mediate the cytoprotective effect of AMP peptide, it was asked if exposing intestinal epithelial cells to the peptide could modify induction of heat shock proteins (hsps) (Musch et al., 1996). Diploid non-transformed rat intestinal epithelial IEC-18 cells were used to study induction of hsps in response to thermal injury rather than C2 cells—which constitutively express hsp27 and hsp72 at high levels, possibly because they are transformed. (Hsp27 is found in human C2 cells, and hsp25 in rat IEC-18 cells. Hsp72 is often referred to as hsp70). The results depicted in FIG. 42 indicate that, as expected, hsc73 and hsp25 are constitutively expressed (0 hr), but hsp72 is not. […]

[1] = test system: Staphylococcus epidermidis; test: Growth of other bacteria and fungi; assay type: cell-based
Aspergillus niger = test: Growth of other bacteria and fungi; assay type: cell-based
NCI N-87 cells = test: Growth of NCI N-87 gastric carcinoma cells; assay type: cell-based; settings: concentration-dependent
Protocol: (§1) To characterize the capacity of gastric and intestinal cells to respond to AMP-18, AGS gastric adenocarcinoma cells, HAE human gastric antrum mucosa primary cultures transformed with SV40 large T antigen, rat diploid small intestinal epithelial cells of the IEC-6 (FIG. 15) and IEC-18 lines, NCI N-87 gastric carcinoma cells, and SK-GT5 gastroesophageal adenocarcinoma cells were studied; human WI-38 fibroblasts and HeLa cells served as non-GI control cell lines. Mitogenesis was assayed by performing cell counts 3 to 4 days after exposing cells to the agent of interest, trypsinizing the culture to prepare single cells, and confirming this while counting them in a hemocytometer.

Pseudomonas aeruginosa = test: Growth of other bacteria and fungi; assay type: cell-based
Klebsiella pneumoniae = test: Growth of other bacteria and fungi; assay type: cell-based
[2] = test system: tyrosine phosphorylation, p38 MAP kinase, hsp25, JNK1/2, ERK1/2; test: Phosphorylation of signaling proteins in IEC-18 cells (immunoblot); assay type: cell-based, rat
Protocol: To find signaling molecules by which AMP peptide mediates its biological effects, it was asked if the peptide stimulates tyrosine phosphorylation in GI epithelial cells. IEC-18 cells were treated with AMP peptide for different periods of time, the cells were then lysed, the proteins extracted and separated on SDS-polyacrylamide gels, blotted, and the blot was probed with 4G10 anti-phosphotyrosine monoclonal antibody.
First the effect of AMP peptide on phosphorylation of p38 MAPK in IEC-18 cells was examined. After exposure to the peptide (8 μg/ml) for up to 2 hr, the cells were lysed, the proteins were extracted, and Western blot analysis was performed using anti-phospho-specific p38 antibody. Then the membrane was stripped and reprobed with anti-p38 antibody. […] Next, to see if AMP peptide stimulated phosphorylation of hsp25, a specific anti-phospho-hsp25 antibody (Affinity BioReagents) was used to probe a blot prepared using AMP peptide-treated IEC-18 cells as above.

IEC-18 cells [3] = test: Wound restitution (migration) of scrape-wounded IEC-18 cell monolayers; assay type: cell-based, rat
Protocol: Confluent monolayer cultures were mechanically wounded by scraping with a razor blade, and the distance that cells migrated from the wound edge was measured using a microscope eyepiece reticle.
In a separate set of experiments DSS reduced restitution of scrape-wounded cultures of non-transformed diploid rat intestinal epithelial IEC-18 cells (P<0.001) (FIG. 29, right panel). When DSS was removed by aspirating the medium and the cultures allowed to recover for 24 hr after scrape wounding, cell migration during the next 24 hr was 40% greater in the presence of AMP peptide compared to vehicle (P<0.001).

IEC-18 cells [4] = test: Growth of confluent cultures of IEC-18 cells (cell count); assay type: cell-based, rat; settings: confluent IEC-18 cultures, FIG. 13; read-out: half-maximal concentration (K1/2) for growth stimulation
Protocol: Confluent cultures of IEC-18 cells were prepared. One day later, medium was aspirated and replaced with 5 ml of DMEM containing CS (0.5%) and insulin, without (control) or with mitogenic peptide 58-99 (8 μg/ml). Sister plates receiving 1 ml medium and different amounts of peptide 67-85 were incubated at 1 hr at 38° C. on a CO2 incubator, and then an additional 4 ml of medium was added to each dish. Peptide 58-99 was added to 2 of the 4-sister plates at each concentration of peptide 67-85, and the number of cells was counted. […] Stimulation of cell growth by mitogenic peptide 58-99 was completely abolished by preincubation of cells with 0.25 μg/ml of peptide 67-85. […] Values for the number of cells per culture are shown relative to multiplication of cells exposed to the vehicle during the same period.
Urea (6 M) was employed to release proteins from the insoluble fraction solubilize rhAMP-18 containing the His6-tag (SEQ ID NO: 16), and make it available to bind to the Ni^2+-charged resin from which it was subsequently eluted with a gradient of imidazole (0 to 200 mM). The amount of eluted rhAMP-18 was measured using the BCA assay, and the appearance of a single band at the predicted size of 19-20 kD was confirmed by SDS-PAGE followed by immunoblotting. To determine if eluted rhAMP-18 renatured to assume a structure that was mitogenic, aliquots of the eluate (following removal of urea and imidazole by dialysis) were added to cultures of IEC-18 cells and the number of cells was counted 4 days later. […] AMP peptide 77-97 refers to the mature protein; same as peptide 97-117 of human precursor protein: Table 1. These observations indicate that biologically active recombinant human AMP-18 that can be utilized in diverse clinical situations is available. The mitogenic potency of rhAMP-18 is in the nanomolar range which would be expected for a native gastric cell growth factor that participates in the maintenance and repair of the stomach in vivo.
as §1

LDALVKEKKLQGKGPGGPPPK [97–117, peptide 77-97 of the mature protein, same as 97-117 of the human precursor]
expression of hsp25 and hsp72 compared to vehicle (hsp25, hsp72): greater; also recorded: increased
growth of Staphylococcus epidermidis [1]: did not alter the growth
growth of Aspergillus niger (Aspergillus niger): did not alter the growth
growth of NCI N-87 cells (NCI N-87 cells): stimulated
growth of Pseudomonas aeruginosa (Pseudomonas aeruginosa): did not alter the growth
growth of Klebsiella pneumoniae (Klebsiella pneumoniae): did not alter the growth
phospho (P)-hsp25 ([2]; 30 min): stimulated the appearance
activation (phosphorylation) of JNK1/2 and ERK1/2 ([2]; JNKs after 10 min, ERKs at 20 min, listed as AMP peptide): rapidly activated
total hsp25 ([2]; after 1 hr): increase
total p38 MAPK ([2]; peptide 8 μg/ml): no change
p38 MAP kinase phosphorylation ([2]; peptide 8 μg/ml, 30 min, listed as AMP peptide): striking increase; also recorded: increased
protein tyrosine phosphorylation ([2]; peptide 8 μg/ml, two min): tyrosine phosphorylation of several proteins
cell migration greater than vehicle after DSS removal (IEC-18 cells [3]; 24 hr recovery after scrape wounding, next 24 hr, P<0.001): 40%
migration from the wound edge compared with control (IEC-18 cells [3]; each time point, P<0.005): migrated further
EC50 (IEC-18 cells [4]): ~300 nM

Source: patent publication US7629317B2, “Control of growth and repair of gastro-intestinal tissues by gastrokines and inhibitors” (The University of Chicago, priority 2001, dated 2009)
